For 55 compounds, IC50 and minimal effective dose results are on record in patent US5116858A, “4-imidazoline derivatives” (Mitsubishi Kasei Corporation, priority 1989, dated 1992).

Usually IC50 stands for the concentration that inhibits the measured activity by half.

Experiment [1] concerns peroxidized lipid in rat brain homogenate. Put plainly: Lipoperoxidation inhibitory activity in brain homogenate (TBA method). As to conditions: 30 minutes at 37° C., final conc. 0.3-100 μM, read-out: Anti-lipoperoxidation Activity IC50. In kind it is biochemical, Wistar male rats. Here is the method: Brain homogenate was prepared using Wistar male rats in accordance with the following procedure. […] A polyethylene tube was inserted into the aorta through the left ventricle, and fixed. Brain perfusion was conducted using ice-cooled 50 mM phosphate buffered saline (PBS), pH 7.4, through the tube, and whole brain was extracted. After removal of the cerebellum, the cerebrum was weighed while wet and homogenated by a Teflon homogenizer under ice-cooling, after addition of nine-fold by weight of PBS. The resultant homogenate was centrifuged at 4° C. (2200 r.p.m., 10 minutes), and an aliquot of the supernatant (0.3 ml) was placed in a light-resistant test tube with ground stopper and used for the following test.
To the brain homogenate obtained above were added PBS (0.6 ml) and an ethanol solution (10 μl) containing a predetermined amount of a test compound. Thus, each of the ethanol solutions was prepared so that the final concentration of the compound was 0.3-100 μM. The mixture was allowed to warm for 30 minutes at 37° C. (external bath temperature). […] (2600 r.p.m., 10 minutes). The resultant supernatant was used in the following quantitative analysis.
The aqueous mixture was heated in a boiling-water bath for 60 minutes and cooled rapidly. Distilled water (1.0 ml) and a mixture of pyridine and butanol (1:15) (5.0 ml) were added to the cooled mixture, and the latter was shaken for 30 seconds and centrifuged (3000 r.p.m., 10 minutes). The supernatant was used as a test sample for quantitative analysis of peroxidized lipid as mentioned below.

A further experiment concerns mice. As to the kind of experiment: Passive avoidance response test (memory-improving activity, cycloheximide-treated mice). Type of experiment: in vivo. The settings on record: Mus musculus; oral, 15 mice per group, cycloheximide 120 mg/kg s.c., latent time; read-out: Memory-Improving Activity, Minimum Effective Dose. Here is the method:
Passive avoidance response test was conducted in mice (15 animals per group) using light-dark differential apparatus of step-down type. The apparatus consisted of a dark room made of black and rigid vinylidene chloride resin [30 cm (depth)×30 cm (width)×31 cm (height)] and a light room, as an adjacent room, made of transparent rigid vinylidene chloride resin. The floor of the light room was set 2 cm higher than the grid surface of the dark room (step down type), and there was a guillotine door between the rooms. The animals were placed in the apparatus and acclimatized before test, and latent time for moving from the light room to the dark room was determined.
The acclimatized animals subcutaneously received 120 mg/kg of cycloheximide (Sigma) dissolved in physiological saline. After 30 minutes of the administration, the animals were placed in the light room. Immediatly after the movement of the animals to the dark room, electric current was applied on the grid (0.5 mA, 3 seconds), which gave the animals "aquired behavior". After 24 hours of the establishment of the aquired behavior, a test compound suspended in 1% tragacanth was administered orally to the animals, which were then returned to the light room. Control animals received only 1% tragacanth. The latent time until an individual animal started to move to the dark room was determined.

With `COc1ccc(-c2c(C)[nH]c(=O)n2C)cc1` [Compound A, reference compound], the IC50 in experiment [1] turned out to be 147 µM.
For the compound `CCCCn1c(-c2ccccc2)c(C)[nH]c1=O` [Compound B, reference compound], the half-maximal inhibitory concentration (IC50) in experiment [1] was above 100 µM.
As for `CCCCCCc1ccc(-c2c(C)[nH]c(=O)n2C)cc1` [Compound No. 1, 1,4-Dimethyl-5-(4'-n-hexylphenyl)-4-imidazolin-2-one], in experiment [1], the IC50 amounted to 9 µM. Besides, the minimal effective dose in the experiment with mice was determined as 0.3 mg/kg.
`CCCc1ccc(-c2c(C)[nH]c(=O)n2C)cc1` [Compound No. 7]: the IC50 in experiment [1] was found to be 21.5 µM.
On the same count and under the same terms, as for `Cc1[nH]c(=O)n(C)c1-c1ccc(C(C)(C)C)cc1` [Compound No. 9], the figure is 8.4 µM.
Take `CCCCCCCCCCc1ccc(-c2c(C)[nH]c(=O)n2C)cc1` [Compound No. 12]: in experiment [1], the half-maximal inhibitory concentration (IC50) was 7.9 µM. In the experiment with mice, the minimal effective dose is 0.3 mg/kg.
Take `CCCCCCCCCCCCc1ccc(-c2c(C)[nH]c(=O)n2C)cc1` [Compound No. 13]: the IC50 in experiment [1] was determined as 13 µM. Further, in the experiment on mice, the minimal effective dose is 3 mg/kg.
Consider `Cc1[nH]c(=O)n(C)c1-c1ccc(OCCC(C)C)cc1` [Compound No. 20], for which the IC50 in experiment [1] turned out to be 6.6 µM.
The same measure, in the same setting: then `CCCCCCOc1ccc(-c2c(C)[nH]c(=O)n2C)cc1` [Compound No. 21], with 7.3 µM.
As for `Cc1[nH]c(=O)n(C(C)C)c1-c1ccc(C2CCCCC2)cc1` [Compound No. 77, 5-(4'-Cyclohexylphenyl)-1-isopropyl-4-methyl-4-imidazolin-2-one], the IC50 in experiment [1] stood at 8.3 µM. In addition, in the experiment on mice, the minimal effective dose is 0.1 mg/kg.
The corresponding values for `Cc1[nH]c(=O)n(C2CCCCC2)c1-c1ccc(-c2ccccc2)cc1` [Compound No. 93, 1-Cyclohexyl-5-(4-biphenyl)-4-methyl-4-imidazolin-2-one] are 10.9 µM and 0.1 mg/kg.
The corresponding values for `CCCCCCCCCCOc1ccc(-c2c(C)[nH]c(=O)n2C2CCCCC2)cc1` [Compound No. 122, 1-cyclohexyl-5-(4'-decyloxyphenyl)-4-methyl-4-imidazolin-2-one] are 10.5 µM and 0.1 mg/kg.
In the same order, the values of `Cc1[nH]c(=O)n(C2CCCCC2)c1-c1ccc(Oc2ccccc2)cc1` [Compound No. 123, 1-Cyclohexyl-4-methyl-5-(4'-phenoxyphenyl)-4-imidazolin-2-one] are 7.9 µM and 0.1 mg/kg.
Take `Cc1[nH]c(=O)n(C2CCCCC2)c1-c1ccc(OCc2ccccc2)cc1` [Compound No. 124, 5-(4'-Benzyloxyphenyl)-1-cyclohexyl-4-methyl-4-imidazolin-2-one]: the IC50 in experiment [1] stood at 8.3 µM. Also, the minimal effective dose with mice was 0.1 mg/kg.
In the case of `COC1=C(OC)C(=O)C(CCCCCCCCCCO)=C(C)C1=O` [Idebenone, reference compound], in experiment [1], the IC50 stood at 17.2 µM.
Same read-out and setting: then `CCCCc1ccc(-c2c(CC)[nH]c(=O)n2C)cc1` [compound 3], with 13.9 µM.
Take `Cc1[nH]c(=O)n(C)c1-c1ccc(CC(C)C)cc1` [compound 5]: the IC50 in experiment [1] was 7.8 µM. Further, the minimal effective dose in the experiment with mice came to 30 mg/kg.
With `CCCCCc1ccc(-c2c(C)[nH]c(=O)n2C)cc1` [compound 6], the IC50 in experiment [1] was found to be 5.9 µM.
Consider `CCCCCCCc1ccc(-c2c(C)[nH]c(=O)n2C)cc1` [compound 10], for which the IC50 in experiment [1] was 8.4 µM. Besides, the minimal effective dose in the experiment with mice turned out to be 30 mg/kg.
`CCCCCCCCc1ccc(-c2c(C)[nH]c(=O)n2C)cc1` [compound 11]: the IC50 in experiment [1] was determined as 19.4 µM. For the same compound, the minimal effective dose with mice came to 30 mg/kg.
In the same order, the values of `CCCCCCCCCCCCCCc1ccc(-c2c(C)[nH]c(=O)n2C)cc1` [compound 14] are 43.8 µM and 30 mg/kg.
As to `Cc1[nH]c(=O)n(C)c1-c1ccc(OC(C)C)cc1` [compound 17], the IC50 in experiment [1] is 20.4 µM.
Take `CCCCOc1ccc(-c2c(C)[nH]c(=O)n2C)cc1` [compound 18]: in experiment [1], the IC50 stood at 5.1 µM. The minimal effective dose with mice worked out at 0.3 mg/kg.
As for `CCCCCOc1ccc(-c2c(C)[nH]c(=O)n2C)cc1` [compound 19], the IC50 in experiment [1] was 4.5 µM.
For the compound `CCCCCCCOc1ccc(-c2c(C)[nH]c(=O)n2C)cc1` [compound 22], in experiment [1], the IC50 worked out at 5.7 µM.
On to `CCCCCCCCOc1ccc(-c2c(C)[nH]c(=O)n2C)cc1` [compound 23], for which the IC50 in experiment [1] was 4 µM. Further, in the experiment on mice, the minimal effective dose is 30 mg/kg.
With `CCCCCCCCCOc1ccc(-c2c(C)[nH]c(=O)n2C)cc1` [compound 24], in experiment [1], the IC50 amounted to 4.8 µM.
Turning to `CCCCCCCCCCOc1ccc(-c2c(C)[nH]c(=O)n2C)cc1` [compound 25], the half-inhibitory concentration (IC50) in experiment [1] is 6.9 µM. The minimal effective dose in the experiment on mice amounted to 0.1 mg/kg.
Regarding `CCCCCCCCCCCCOc1ccc(-c2c(C)[nH]c(=O)n2C)cc1` [compound 26], in experiment [1], the IC50 came to 9.7 µM. In addition, the minimal effective dose in the experiment with mice is 0.1 mg/kg.
For the compound `CCCCCCCCCCCCCCCCCCOc1ccc(-c2c(C)[nH]c(=O)n2C)cc1` [compound 27], in the experiment with mice, the minimal effective dose came out at 0.1 mg/kg.
As to `Cc1[nH]c(=O)n(C)c1-c1ccc(Oc2ccccc2)cc1` [compound 28], the IC50 in experiment [1] was 8.1 µM.
Same read-out and setting: as for `Cc1[nH]c(=O)n(C)c1-c1ccc(OCc2ccccc2)cc1` [compound 29], the figure is 6.7 µM.
Regarding `Cc1[nH]c(=O)n(C)c1-c1ccc(OCCCc2ccccc2)cc1` [compound 30], in experiment [1], the IC50 worked out at 5.9 µM. Besides, the minimal effective dose with mice was 30 mg/kg.
Consider `CSc1ccc(-c2c(C)[nH]c(=O)n2C)cc1` [compound 31], for which the IC50 in experiment [1] is 39.4 µM.
For the compound `CCCCSc1ccc(-c2c(C)[nH]c(=O)n2C)cc1` [compound 32], the IC50 in experiment [1] is 11.3 µM. Besides, the minimal effective dose with mice was found to be 3 mg/kg.
For `CCCc1ccc(-c2c(C)[nH]c(=O)n2CC)cc1` [compound 54], in experiment [1], the IC50 stood at 22.6 µM.
On the same count and under the same terms, as for `CCCCc1ccc(-c2c(C)[nH]c(=O)n2CC)cc1` [compound 55], the figure is 24.5 µM; as for `CCCCc1ccc(-c2c(CC)[nH]c(=O)n2CC)cc1` [compound 56], 13.9 µM.
As to `CCCCOc1ccc(-c2c(C)[nH]c(=O)n2CC)cc1` [compound 58], in experiment [1], the IC50 worked out at 14.5 µM. Also, the minimal effective dose in the experiment on mice was found to be 0.3 mg/kg.
For the compound `CCn1c(-c2ccc(OC(C)C)cc2)c(C)[nH]c1=O` [compound 60], in experiment [1], the IC50 amounted to 39.1 µM.
Same read-out and setting: then `CCCCSc1ccc(-c2c(C)[nH]c(=O)n2CC)cc1` [compound 61], with 12.9 µM.
For the compound `CCCCc1ccc(-c2c(C)[nH]c(=O)n2C(C)C)cc1` [compound 78], in experiment [1], the IC50 turned out to be 10.7 µM. Also, in the experiment with mice, the minimal effective dose came out at 0.3 mg/kg.
Regarding `CCCCOc1ccccc1-c1c(C)[nH]c(=O)n1C(C)C` [compound 80], in experiment [1], the IC50 was determined as 25.5 µM.
On the same count and under the same terms, as for `Cc1[nH]c(=O)n(C2CCCCC2)c1-c1ccc(OCCC(C)C)cc1` [compound 94, 1-Cyclohexyl-5-(4'-isoamyloxyphenyl)-4-methyl-4-imidazolin-2-one], the figure is 7.2 µM; as for `CCCCCCCCc1ccc(-c2c(C)[nH]c(=O)n2C2CCCCC2)cc1` [compound 101], 10.3 µM.
Take `CCCCCCCCCCc1ccc(-c2c(C)[nH]c(=O)n2C2CCCCC2)cc1` [compound 102]: the half-maximal inhibitory concentration (IC50) in experiment [1] is 27 µM.
Take `CCCc1ccc(-c2c(C)[nH]c(=O)n2C2CCCCC2)cc1` [compound 106]: the IC50 in experiment [1] was determined as 13.9 µM. Moreover, the minimal effective dose in the experiment with mice amounted to 30 mg/kg.
As to `Cc1[nH]c(=O)n(C2CCCCC2)c1-c1cccc(OC(C)C)c1` [compound 107], the IC50 in experiment [1] was 10.4 µM.
Same read-out and setting: then `Cc1[nH]c(=O)n(C2CCCCC2)c1-c1ccccc1OC(C)C` [compound 108], with 21.5 µM.
Consider `Cc1[nH]c(=O)n(C2CCCCC2)c1-c1ccc(OC(C)C)cc1` [compound 109], for which the IC50 in experiment [1] came to 13 µM. The minimal effective dose in the experiment with mice came to 0.1 mg/kg.
Consider `CCCCOc1cccc(-c2c(C)[nH]c(=O)n2C2CCCCC2)c1` [compound 110], for which, in experiment [1], the IC50 is 9 µM.
The same measure, in the same setting: then `CCCCCOc1ccc(-c2c(C)[nH]c(=O)n2C2CCCCC2)cc1` [compound 112], with 9.1 µM; and `Cc1[nH]c(=O)n(Cc2ccccc2)c1-c1ccc(C(C)(C)C)cc1` [compound 138], with 8.6 µM; and `CCCCCCc1ccc(-c2c(C)[nH]c(=O)n2Cc2ccccc2)cc1` [compound 139], with 8.2 µM.
Regarding `Cc1[nH]c(=O)n(Cc2ccccc2)c1-c1ccc(C2CCCCC2)cc1` [compound 140], the IC50 in experiment [1] came to 35.3 µM.
